Data reported in ChEMBL document CHEMBL1671617, “Correlation of antimicrobial resistance with beta-lactamases, the OmpA-like porin, and efflux pumps in clinical isolates of Acinetobacter baumannii endemic to New York City” (2008).
Converted amounts (≈) assume the structure as drawn.

How the values were obtained:
Type in all cases: functional
Acinetobacter baumannii [1] = experiment: Antimicrobial activity against ISAba1 linked with the blaOXA-51-type beta-lactamase harboring Acinetobacter baumannii beta clonal group isolate 14 expressing ompA, adeB, adeM, aacA4, blaSHV-5 by Etest method
Acinetobacter baumannii [2] = experiment: Antimicrobial activity against ISAba1 linked with the blaOXA-51-type beta-lactamase harboring Acinetobacter baumannii lambda clonal group isolate 28 expressing ampC, ompA, adeM, aadB, aadA1 by Etest method
Acinetobacter baumannii [3] = experiment: Antimicrobial activity against Acinetobacter baumannii nu clonal group isolate 31 expressing ampC, ompA, adeB, adeM, aadB, aadA2 by Etest method
Acinetobacter baumannii [4] = experiment: Antimicrobial activity against Acinetobacter baumannii unique clonal group isolate 37 expressing ampC, ompA, adeB, adeM by Etest method
Acinetobacter baumannii [5] = experiment: Antimicrobial activity against ISAba1 linked with the blaOXA-51-type beta-lactamase harboring Acinetobacter baumannii beta clonal group isolate 13 expressing ompA, adeB, adeM, aacA4, blaSHV-5 by Etest method
Acinetobacter baumannii [6] = experiment: Antimicrobial activity against ISAba1 linked with the blaOXA-51-type beta-lactamase harboring Acinetobacter baumannii beta clonal group isolate 11 expressing ompA, adeB, adeM, blaSHV-5 by Etest method
Acinetobacter baumannii [7] = experiment: Antimicrobial activity against Acinetobacter baumannii nu clonal group isolate 32 expressing ampC, ompA, adeB, adeM, aadB, aadA2 by Etest method
Acinetobacter baumannii [8] = experiment: Antimicrobial activity against ISAba1 linked with the blaOXA-51-type beta-lactamase harboring Acinetobacter baumannii alpha clonal group isolate 1 expressing ampC, ompA, adeB, adeM by Etest method
Acinetobacter baumannii [9] = experiment: Antimicrobial activity against ISAba1 linked with the blaOXA-51-type beta-lactamase harboring Acinetobacter baumannii unique clonal group isolate 40 expressing ampC, ompA, adeB, adeM, aadA1, aacA4, aacC2, blaSHV-5 by Etest method
Acinetobacter baumannii [10] = experiment: Antimicrobial activity against ISAba1 linked with the blaOXA-51-type beta-lactamase harboring Acinetobacter baumannii beta clonal group isolate 9 expressing ampC, ompA, adeB, adeM by Etest method
Acinetobacter baumannii [11] = experiment: Antimicrobial activity against ISAba1 linked with the blaOXA-51-type beta-lactamase harboring Acinetobacter baumannii alpha clonal group isolate 8 expressing ampC, ompA, adeB, adeM, aacC1, aadA1 by Etest method
Acinetobacter baumannii [12] = experiment: Antimicrobial activity against ISAba1 linked with the blaOXA-51-type beta-lactamase harboring Acinetobacter baumannii alpha clonal group isolate 7 expressing ampC, ompA, adeB, adeM, blaSHV-5 by Etest method
Acinetobacter baumannii [13] = experiment: Antimicrobial activity against Acinetobacter baumannii unique clonal group isolate 39 expressing ampC, ompA, adeM by Etest method
Acinetobacter baumannii [14] = experiment: Antimicrobial activity against ISAba1 linked with the blaOXA-51-type beta-lactamase harboring Acinetobacter baumannii beta clonal group isolate 17 expressing ompA, adeB, adeM, aacA4, blaSHV-5 by Etest method
Acinetobacter baumannii [15] = experiment: Antimicrobial activity against ISAba1 linked with the blaOXA-51-type beta-lactamase harboring Acinetobacter baumannii zeta clonal group isolate 26 expressing ampC, ompA, adeB, adeM, aadA1, aacA4, aacC2, blaSHV-5 by Etest method
Acinetobacter baumannii [16] = experiment: Antimicrobial activity against ISAba1 linked with the blaOXA-51-type beta-lactamase harboring Acinetobacter baumannii beta clonal group isolate 16 expressing ompA, adeB, adeM, aacA4, blaSHV-5 by Etest method
Acinetobacter baumannii [17] = experiment: Antimicrobial activity against ISAba1 linked with the blaOXA-51-type beta-lactamase harboring Acinetobacter baumannii beta clonal group isolate 12 expressing ompA, adeB, adeM, aacA4, aacC2, blaSHV-5 by Etest method
Acinetobacter baumannii [18] = experiment: Antimicrobial activity against Acinetobacter baumannii lambda clonal group isolate 27 expressing ampC, ompA, adeB, adeM, aadB, aadA1 by Etest method
Acinetobacter baumannii [19] = experiment: Antimicrobial activity against ISAba1 linked with the blaOXA-51-type beta-lactamase harboring Acinetobacter baumannii zeta clonal group isolate 21 expressing ampC, ompA, adeB, adeM, aacC2, blaSHV-5 by Etest method
Acinetobacter baumannii [20] = experiment: Antimicrobial activity against ISAba1 linked with the blaOXA-51-type beta-lactamase harboring Acinetobacter baumannii zeta clonal group isolate 24 expressing ampC, ompA, adeB, adeM, aadA1, aacA4, aacC2, blaSHV-5 by Etest method
Acinetobacter baumannii [21] = experiment: Antimicrobial activity against Acinetobacter baumannii eta clonal group isolate 35 expressing ampC, ompA, adeB, adeM by Etest method
Acinetobacter baumannii [22] = experiment: Antimicrobial activity against ISAba1 linked with the blaOXA-51-type beta-lactamase harboring Acinetobacter baumannii zeta clonal group isolate 25 expressing ampC, ompA, adeB, adeM, aadA1, aacA4, aacC2, blaSHV-5 by Etest method
Acinetobacter baumannii [23] = experiment: Antimicrobial activity against Acinetobacter baumannii alpha clonal group isolate 4 expressing ampC, ompA, adeB, adeM, aacC1, aadA1 by Etest method
Acinetobacter baumannii [24] = experiment: Antimicrobial activity against ISAba1 linked with the blaOXA-51-type beta-lactamase harboring Acinetobacter baumannii alpha clonal group isolate 6 expressing ampC, ompA, adeB, adeM, aacC1, aadA1 by Etest method
Acinetobacter baumannii [25] = experiment: Antimicrobial activity against Acinetobacter baumannii alpha clonal group isolate 5 expressing ampC, ompA, adeB, adeM, aacC1, aadA1 by Etest method
Acinetobacter baumannii [26] = experiment: Antimicrobial activity against Acinetobacter baumannii unique clonal group isolate 38 expressing ampC, ompA, adeB, adeM by Etest method
Acinetobacter baumannii [27] = experiment: Antimicrobial activity against Acinetobacter baumannii nu clonal group isolate 34 expressing ampC, ompA, adeB, adeM by Etest method
Acinetobacter baumannii [28] = experiment: Antimicrobial activity against Acinetobacter baumannii alpha clonal group isolate 2 expressing ampC, ompA, adeB, adeM, aacC1, aadA1 by Etest method
Acinetobacter baumannii [29] = experiment: Antimicrobial activity against Acinetobacter baumannii eta clonal group isolate 36 expressing ampC, ompA, adeB, adeM by Etest method
Acinetobacter baumannii [30] = experiment: Antimicrobial activity against ISAba1 linked with the blaOXA-51-type beta-lactamase harboring Acinetobacter baumannii lambda clonal group isolate 30 expressing ampC, ompA, adeB, adeM, aadB, aadA1 by Etest method
Acinetobacter baumannii [31] = experiment: Antimicrobial activity against ISAba1 linked with the blaOXA-51-type beta-lactamase harboring Acinetobacter baumannii lambda clonal group isolate 29 expressing ampC, ompA, adeM, aadB, aadA1 by Etest method
Acinetobacter baumannii [32] = experiment: Antimicrobial activity against ISAba1 linked with the blaOXA-51-type beta-lactamase harboring Acinetobacter baumannii zeta clonal group isolate 19 expressing ampC, ompA, adeB, adeM, aacC2 by Etest method
Acinetobacter baumannii [33] = experiment: Antimicrobial activity against ISAba1 linked with the blaOXA-51-type beta-lactamase harboring Acinetobacter baumannii beta clonal group isolate 18 expressing ompA, adeB, adeM, aacA4, blaSHV-5 by Etest method
Acinetobacter baumannii [34] = experiment: Antimicrobial activity against ISAba1 linked with the blaOXA-51-type beta-lactamase harboring Acinetobacter baumannii beta clonal group isolate 15 expressing ompA, adeB, adeM, aacA4, blaSHV-5 by Etest method
Acinetobacter baumannii [35] = experiment: Antimicrobial activity against Acinetobacter baumannii nu clonal group isolate 33 expressing ampC, ompA, adeB, adeM by Etest method
Acinetobacter baumannii [36] = experiment: Antimicrobial activity against ISAba1 linked with the blaOXA-51-type beta-lactamase harboring Acinetobacter baumannii beta clonal group isolate 10 expressing ompA, adeB, adeM, aacA4, blaSHV-5 by Etest method
Acinetobacter baumannii [37] = experiment: Antimicrobial activity against ISAba1 linked with the blaOXA-51-type beta-lactamase harboring Acinetobacter baumannii zeta clonal group isolate 20 expressing ampC, ompA, adeB, adeM, aacC2 by Etest method
Acinetobacter baumannii [38] = experiment: Antimicrobial activity against Acinetobacter baumannii alpha clonal group isolate 3 expressing ampC, ompA, adeB, adeM, aacC1, aadA1 by Etest method
Acinetobacter baumannii [39] = experiment: Antimicrobial activity against ISAba1 linked with the blaOXA-51-type beta-lactamase harboring Acinetobacter baumannii zeta clonal group isolate 23 expressing ampC, ompA, adeB, adeM, aadA1, aacA4, aacC2, aphA6 by Etest method
Acinetobacter baumannii [40] = experiment: Antimicrobial activity against ISAba1 linked with the blaOXA-51-type beta-lactamase harboring Acinetobacter baumannii zeta clonal group isolate 22 expressing ampC, ompA, adeB, adeM, aadA1, aacA4, aacC2, blaSHV-5 by Etest method

With `C[C@@H](O)[C@H]1C(=O)N2C(C(=O)O)=C(S[C@@H]3CN[C@H](C(=O)N(C)C)C3)[C@H](C)[C@H]12` [MEROPENEM] the MIC (Acinetobacter baumannii [1]) was > 32 µg/mL, the MIC (Acinetobacter baumannii [2]) was > 32 µg/mL and the MIC (Acinetobacter baumannii [3]) was 0.38 µg/mL (≈ 0.991 µM). For the same compound, the MIC (Acinetobacter baumannii [4]) was 1.5 µg/mL (≈ 3.91 µM), the MIC (Acinetobacter baumannii [5]) was > 32 µg/mL and the MIC (Acinetobacter baumannii [6]) was > 32 µg/mL. The MIC (Acinetobacter baumannii [7]) was 0.38 µg/mL (≈ 0.991 µM), the MIC (Acinetobacter baumannii [8]) was 4 µg/mL (≈ 10.4 µM) and the MIC (Acinetobacter baumannii [9]) was > 32 µg/mL. The MIC (Acinetobacter baumannii [10]) was > 32 µg/mL, the MIC (Acinetobacter baumannii [11]) was 24 µg/mL (≈ 62.6 µM) and the MIC (Acinetobacter baumannii [12]) was > 32 µg/mL. The MIC (Acinetobacter baumannii [13]) was 0.25 µg/mL (≈ 0.652 µM), the MIC (Acinetobacter baumannii [14]) was > 32 µg/mL and the MIC (Acinetobacter baumannii [15]) was > 2 µg/mL. For the same compound, the MIC (Acinetobacter baumannii [16]) was > 32 µg/mL, the MIC (Acinetobacter baumannii [17]) was > 32 µg/mL and the MIC (Acinetobacter baumannii [18]) was 32 µg/mL (≈ 83.4 µM). The MIC (Acinetobacter baumannii [19]) was 16 µg/mL (≈ 41.7 µM), the MIC (Acinetobacter baumannii [20]) was > 2 µg/mL and the MIC (Acinetobacter baumannii [21]) was 0.75 µg/mL (≈ 1.96 µM). The MIC (Acinetobacter baumannii [22]) was > 2 µg/mL, the MIC (Acinetobacter baumannii [23]) was 1.5 µg/mL (≈ 3.91 µM) and the MIC (Acinetobacter baumannii [24]) was 12 µg/mL (≈ 31.3 µM). The MIC (Acinetobacter baumannii [25]) was 1.5 µg/mL (≈ 3.91 µM), the MIC (Acinetobacter baumannii [26]) was 0.38 µg/mL (≈ 0.991 µM) and the MIC (Acinetobacter baumannii [27]) was 0.38 µg/mL (≈ 0.991 µM). For the same compound, the MIC (Acinetobacter baumannii [28]) was 1.5 µg/mL (≈ 3.91 µM), the MIC (Acinetobacter baumannii [29]) was 0.75 µg/mL (≈ 1.96 µM) and the MIC (Acinetobacter baumannii [30]) was > 32 µg/mL. For the same compound, the MIC (Acinetobacter baumannii [31]) was > 32 µg/mL, the MIC (Acinetobacter baumannii [32]) was > 1.5 µg/mL and the MIC (Acinetobacter baumannii [33]) was > 32 µg/mL. The MIC (Acinetobacter baumannii [34]) was > 32 µg/mL, the MIC (Acinetobacter baumannii [35]) was 0.38 µg/mL (≈ 0.991 µM) and the MIC (Acinetobacter baumannii [36]) was > 32 µg/mL. For the same compound, the MIC (Acinetobacter baumannii [37]) was > 1.5 µg/mL, the MIC (Acinetobacter baumannii [38]) was 1.5 µg/mL (≈ 3.91 µM) and the MIC (Acinetobacter baumannii [39]) was > 32 µg/mL. For the same compound, the MIC (Acinetobacter baumannii [40]) was > 32 µg/mL.
